Where a name gives a salt, the structure may show the parent alone.
What follows are molecules tested against T1, TAK1-TAB1 fusion protein (Homo sapiens, UniProt O43318) (assay: TAK1 biochemical assay (AlphaScreen, GST-MAP2K7 substrate)). Conditions: TAK1-TAB1 fusion protein, GST-MAP2K7 substrate; read-out: mean TAK1 IC50 (Col. A).
T1 construct: purchased Carna
T1 sequence (O43318 with tags, fused parts or gaps limits assumed): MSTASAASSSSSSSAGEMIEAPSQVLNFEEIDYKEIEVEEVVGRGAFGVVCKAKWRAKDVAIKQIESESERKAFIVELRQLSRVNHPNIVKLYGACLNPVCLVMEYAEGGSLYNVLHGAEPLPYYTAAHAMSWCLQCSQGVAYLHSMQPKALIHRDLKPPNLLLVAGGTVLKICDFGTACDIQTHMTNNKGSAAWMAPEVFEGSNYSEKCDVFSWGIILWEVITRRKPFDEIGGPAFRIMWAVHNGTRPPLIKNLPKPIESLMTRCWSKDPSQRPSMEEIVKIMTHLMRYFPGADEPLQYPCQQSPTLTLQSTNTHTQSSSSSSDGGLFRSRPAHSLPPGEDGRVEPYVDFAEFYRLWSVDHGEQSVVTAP

SMILES	IC50
CSc1nc2cccc(-c3cc4c(-c5cnn(C6CCN(C(C)=O)CC6)c5)cnc(N)c4o3)c2s1 [Example 352, 1-[4-(4-{7-amino-2-[2-(methylsulfanyl)-1,3-benzothiazol-7-yl]furo[2,3-c]pyridin-4-yl}-1H-pyrazol-1-yl)piperidin-1-yl]ethanone trifluoroacetate]	1 to 10 µM
Cc1csc(-c2cnc(N)c3oc(-c4csc5cnccc45)cc23)c1 [Example 375, 4-(4-methyl-thiophen-2-yl)-2-thieno[2,3-c]pyridin-3-yl-furo[2,3-c]pyridin-7-ylamine]	1 to 10 µM
Cc1cc(-c2cnc(N)c3oc(-c4csc5cnccc45)cc23)c(C)s1 [Example 377, 4-(2,5-dimethyl-thiophen-3-yl)-2-thieno[2,3-c]pyridin-3-yl-furo[2,3-c]pyridin-7-ylamine]	1 to 10 µM
COC(=O)c1cc(-c2cnc(N)c3oc(-c4csc5cnccc45)cc23)cs1 [Example 378, 4-(7-amino-2-thieno[2,3-c]pyridin-3-yl-furo[2,3-c]pyridin-4-yl)-thiophene-2-carboxylic acid methyl ester]	> 10 µM
Nc1ncc(-c2cc(C(=O)O)cs2)c2cc(-c3csc4cnccc34)oc12 [Example 379, 5-(7-amino-2-thieno[2,3-c]pyridin-3-yl-furo[2,3-c]pyridin-4-yl)-thiophene-3-carboxylic acid]	1 to 10 µM
COC(=O)c1csc(-c2cnc(N)c3oc(-c4csc5cnccc45)cc23)c1 [Example 380, 5-(7-amino-2-thieno[2,3-c]pyridin-3-yl-furo[2,3-c]pyridin-4-yl)-thiophene-3-carboxylic acid methyl ester]	1 to 10 µM
Nc1ncc(-c2ccc(C(=O)O)s2)c2cc(-c3csc4cnccc34)oc12 [Example 381, 5-(7-amino-2-thieno[2,3-c]pyridin-3-yl-furo[2,3-c]pyridin-4-yl)-thiophene-2-carboxylic acid]	1 to 10 µM
COC(=O)c1ccc(-c2cnc(N)c3oc(-c4csc5cnccc45)cc23)s1 [Example 382, 5-(7-amino-2-thieno[2,3-c]pyridin-3-yl-furo[2,3-c]pyridin-4-yl)-thiophene-2-carboxylic acid methyl ester]	> 10 µM
N#Cc1ccsc1-c1cnc(N)c2oc(-c3csc4cnccc34)cc12 [Example 383, 2-(7-amino-2-thieno[2,3-c]pyridin-3-yl-furo[2,3-c]pyridin-4-yl)-thiophene-3-carbonitrile]	> 10 µM
N#Cc1sccc1-c1cnc(N)c2oc(-c3csc4cnccc34)cc12 [Example 384]	> 10 µM
Nc1ncc(-c2ccc(-c3ccccc3)s2)c2cc(-c3csc4cnccc34)oc12 [Example 385, 4-(5-phenyl-thiophen-2-yl)-2-thieno[2,3-c]pyridin-3-yl-furo[2,3-c]pyridin-7-ylamine]	> 10 µM
Cc1ccc(-c2cnc(N)c3oc(-c4csc5cnccc45)cc23)s1 [Example 386, 4-(5-methyl-thiophen-2-yl)-2-thieno[2,3-c]pyridin-3-yl-furo[2,3-c]pyridin-7-ylamine]	1 to 10 µM
Cc1ccc(-c2cnc(N)c3oc(-c4csc5cnccc45)cc23)o1 [Example 387, 4-(5-methylfuran-2-yl)-2-(thieno[2,3-c]pyridin-3-yl)furo[2,3-c[pyridin-7-amine trifluoroacetate]	1 to 10 µM
Cn1ccc(-c2cnc(N)c3oc(-c4csc5cnccc45)cc23)c1 [Example 389, 4-(1-methyl-1H-pyrrol-3-yl)-2-(thieno[2,3-c]pyridin-3-yl)furo[2,3-c]pyridin-7-amine trifluoroacetate]	1 to 10 µM
Cc1nc(-c2cnc(N)c3oc(-c4csc5cnccc45)cc23)cs1 [Example 390, 4-(2-methyl-1,3-thiazol-4-yl)-2-(thieno[2,3-c]pyridin-3-yl)furo[2,3-c]pyridin-7-amine trifluoroacetate]	1 to 10 µM
Nc1ncc(-c2ccsc2)c2cc(-c3csc4cnccc34)oc12 [Example 391, 2-(thieno[2,3-c]pyridin-3-yl)-4-(thiophen-3-yl)furo[2,3-c]pyridin-7-amine trifluoroacetate]	1 to 10 µM
Cc1cc(-c2cnc(N)c3oc(-c4csc5cnccc45)cc23)cs1 [Example 393, 4-(5-methylthiophen-3-yl)-2-(thieno[2,3-c]pyridin-3-yl)furo[2,3-c]pyridin-7-amine trifluoroacetate]	1 to 10 µM
Cc1nc(C)c(-c2cnc(N)c3oc(-c4csc5cnccc45)cc23)s1 [Example 394, 4-(2,4-dimethyl-thiazol-5-yl)-2-thieno[2,3-c]pyridin-3-yl-furo[2,3-c]pyridin-7-ylamine]	1 to 10 µM
Cn1cnc(-c2cnc(N)c3oc(-c4csc5cnccc45)cc23)c1 [Example 395, 4-(1-methyl-1H-imidazol-4-yl)-2-thieno[2,3-c]pyridin-3-yl-furo[2,3-c]pyridin-7-ylamine]	> 10 µM
Nc1ncc(-c2cscn2)c2cc(-c3csc4cnccc34)oc12 [Example 396, 4-thiazol-4-yl-2-thieno[2,3-c]pyridin-3-yl-furo[2,3-c]pyridin-7-ylamine]	1 to 10 µM
Cc1ncc(-c2cnc(N)c3oc(-c4csc5cnccc45)cc23)n1C [Example 397, 4-(2,3-dimethyl-3H-imidazol-4-yl)-2-thieno[2,3-c]pyridin-3-yl-furo[2,3-c]pyridin-7-ylamine]	1 to 10 µM
COC(=O)c1cc(-c2cnc(N)c3oc(-c4csc5cnccc45)cc23)cn1C [Example 398, 4-(7-amino-2-thieno[2,3-c]pyridin-3-yl-furo[2,3-c]pyridin-4-yl)-1-methyl-1H-pyrrole-2-carboxylic acid methyl ester]	1 to 10 µM
Nc1ncc(-c2cnn(C3CCNCC3)c2)c2c(Cl)c(-c3ccc4[nH]ncc4c3)oc12 [Example 399, 3-chloro-2-(1H-indazol-5-yl)-4-[1-(piperidin-4-yl)-1H-pyrazol-4-yl]furo[2,3-c]pyridin-7-amine hydrochloride]	1 to 10 µM

Second part, the molecule after the results:

IC50	SMILES
1 to 10 µM	CSc1nc2cccc(-c3cc4c(-c5cnn([C@H]6CC[C@H](O)CC6)c5)cnc(N)c4o3)c2s1 [Example 353, trans-4-(4-{7-amino-2-[2-(methylsulfanyl)-1,3-benzothiazol-7-yl]furo[2,3-c]pyridin-4-yl}-1H-pyrazol-1-yl)cyclohexanol Trifluoroacetate (Salt)]
> 10 µM	Nc1ncc(-c2cnn([C@H]3CC[C@H](O)CC3)c2)c2cc(-c3c(-c4cccc(F)c4)ccc4cnsc34)oc12 [Example 356, trans-4-(4-{7-amino-2-[6-(3-fluorophenyl)-1,2-benzothiazol-7-yl]furo[2,3-c]pyridin-4-yl}-1H-pyrazol-1-yl)cyclohexanol]
1 to 10 µM	Cn1ncc2cccc(-c3cc4c(-c5cnn([C@H]6CC[C@H](O)CC6)c5)cnc(N)c4o3)c21 [Example 357, trans-4-{4-[7-amino-2-(1-methyl-1H-indazol-7-yl)furo[2,3-c]pyridin-4-yl]-1H-pyrazol-1-yl}cyclohexanol]
0.1 to 1 µM	CC(=O)N1CCC(n2cc(-c3cnc(N)c4oc(-c5c(F)ccc6ncsc56)cc34)cn2)CC1 [Example 358, 1-(4-{4-[7-amino-2-(6-fluoro-1,3-benzothiazol-7-yl)furo[2,3-c]pyridin-4-yl]-1H-pyrazol-1-yl}piperidin-1-yl)ethanone bis(trifluoroacetate)]
1 to 10 µM	Nc1ncc(-c2cnn([C@H]3CC[C@H](O)CC3)c2)c2cc(-c3c(F)ccc4ncsc34)oc12 [Example 359, trans-4-{4-[7-amino-2-(6-fluoro-1,3-benzothiazol-7-yl)furo[2,3-c]pyridin-4-yl]-1H-pyrazol-1-yl}cyclohexanol]
1 to 10 µM	Nc1ncc(-c2cnn([C@H]3CC[C@H](O)CC3)c2)c2cc(-c3cc(-c4cccc(F)c4)cc4nnsc34)oc12 [Example 369, trans-4-(4-{7-amino-2-[5-(3-fluorophenyl)-1,2,3-benzothiadiazol-7-yl]furo[2,3-c]pyridin-4-yl}-1H-pyrazol-1-yl)cyclohexanol]
1 to 10 µM	CN(C)c1nc2cccc(-c3cc4c(-c5cnn([C@H]6CC[C@H](O)CC6)c5)cnc(N)c4o3)c2s1 [Example 371, trans-4-(4-{7-amino-2-[2-(dimethylamino)-1,3-benzothiazol-7-yl]furo[2,3-c]pyridin-4-yl}-1H-pyrazol-1-yl)cyclohexanol Trifluoroacetate (Salt)]
0.1 to 1 µM	Nc1ncc(-c2cnn([C@H]3CC[C@H](O)CC3)c2)c2cc(-c3cc(-c4cc[nH]n4)cc4nnsc34)oc12 [Example 374, trans-4-(4-{7-amino-2-[5-(1H-pyrazol-3-yl)-1,2,3-benzothiadiazol-7-yl]furo[2,3-c]pyridin-4-yl}-1H-pyrazol-1-yl)cyclohexanol]
> 10 µM	Nc1ncc(-c2cnn([C@H]3CC[C@H](O)CC3)c2)c2cc(-c3cc(C(F)(F)F)cc(C(F)(F)F)c3)oc12 [Example 401, trans-4-(4-{7-amino-2-[3,5-bis(trifluoromethyl)phenyl]furo[2,3-d]pyridin-4-yl}-1H-pyrazol-1-yl)cyclohexanol]
0.1 to 1 µM	Nc1ncc(-c2cnn([C@H]3CC[C@H](O)CC3)c2)c2cc(-c3ccc4c(c3)C(=O)NC4)oc12 [Example 403, 6-{7-amino-4-[1-(trans-4-hydroxycyclohexyl)-1H-pyrazol-4-yl]furo[2,3-c]pyridin-2-yl}-2,3-dihydro-1H-isoindol-1-one]
1 to 10 µM	Nc1ncc(-c2cnn([C@H]3CC[C@H](O)CC3)c2)c2cc(-c3ccc4c(c3)CNC4=O)oc12 [Example 404, 5-{7-amino-4-[1-(trans-4-hydroxycyclohexyl)-1H-pyrazol-4-yl]furo[2,3-c]pyridin-2-yl}-2,3-dihydro-1H-isoindol-1-one]

— patent US8378104B2 (OSI Pharmaceuticals, LLC, priority 2010, dated 2013)
